# Experimental data as given in US20250289810A1, “Compounds As NLRP3 Inflammasome Inhibitors And Their Use As Medicaments” (MAM-AGE S.R.L., priority 2022, published 2025).
# Entries after “also recorded” stand apart in the source; their conditions may differ.
# Experiments:
# B16-F10 melanoma cells = assay: B16-F10 cancer cell proliferation (crystal violet growth curve); assay type: cell-based; conditions: 1 μM, 5 days
# Protocol: B16-F10 cells were treated with selected inhibitors (1 μM) then were counted with a Burker chamber and plated in five sets of 4 wells of a 24-well plate. Starting from the following day (day 1) 1 set of wells (at days 2, 3, 4 and 5) was washed once with PBS, fixed in 4% formaldehyde solution for 15 min at room temperature, and then kept in PBS at 4° C. At day 5, all the wells were stained with crystal violet for 20 minutes, lysed with 10% acetic acid, then the absorbance was read at 595 nm.
# B16-F10 cells = assay: Transwell co-culture of peritoneal macrophages and B16-F10 cells (tumor microenvironment); assay type: cell-based; conditions: macrophages: LPS 1 μg/mL 2 hours, compound 1 μM 30 minutes, ATP 1 hour; 48 h
# Protocol: (§1) Co-culture of peritoneal macrophages and B16-F10 cells were performed using Transwell chambers with 0.4-μm pores on the membranes (Corning, Corning, NY, USA). Peritoneal macrophages and B16-F10 cells were cultured in the lower and upper compartments of the Transwell chamber, respectively, for 48 h. Peritoneal macrophages were seeded at a density of 2×10^5 cells and treated with LPS (1 μg/mL) for 2 hours, then DMSO or compound 4 (1 μM) of Formula (II) for 30 minutes and finally stimulated with ATP for 1 hour. B16-F10 cells were seeded at a density of 2×10^3 cells each well.
# as §1, with “compounds of Formula (III)” for “compound 4”, “μM)” for “μM) of Formula (II)”
# THP-1 cells = assay: RealTime-Glo MT Cell Viability assay on THP-1 cells; assay type: cell-based, human; conditions: 1 μM, 48 hours
# Protocol: (§2) Cell viability was evaluated on THP-1 cells using realtime-Glo” MT Cell Viability Assay (Promega Italia, MI). Briefly, the cells were seeded in a 96 multiwell (10×10^4 cells/well), treated with the selected compound of Formula (II), and incubated for 48 hours. After treatment, the cells were incubated for 10 minutes in the incubator with the realtime-Glo” reagent following protocol. The luminescence was measured every 12 hours in the Glomax Multi Detection System Promega. The luminescence signal correlates with the number of metabolically active cells.
# as §2, with “compound,” for “compound of Formula (II),”, “cells. The results represent the mean luminescence values (RLU)±SEM.” for “cells.”
# AIM2 inflammasome = molecular target: T1, AIM2 inflammasome (Mus musculus, UniProt Q91VJ1); assay: AIM2 inflammasome activation in BMDM transfected with Poly(dA:dT) (IL-1β secretion); assay type: cell-based
# T1 construct: non-NLR AIM2 inflammasome by transfecting BMDM with the dsDNS analogue Poly (dA:dT); endogenous in cells; host or cells: mouse BMDM transfected with poly(dA:dT)
# T1 sequence (Q91VJ1 1-354): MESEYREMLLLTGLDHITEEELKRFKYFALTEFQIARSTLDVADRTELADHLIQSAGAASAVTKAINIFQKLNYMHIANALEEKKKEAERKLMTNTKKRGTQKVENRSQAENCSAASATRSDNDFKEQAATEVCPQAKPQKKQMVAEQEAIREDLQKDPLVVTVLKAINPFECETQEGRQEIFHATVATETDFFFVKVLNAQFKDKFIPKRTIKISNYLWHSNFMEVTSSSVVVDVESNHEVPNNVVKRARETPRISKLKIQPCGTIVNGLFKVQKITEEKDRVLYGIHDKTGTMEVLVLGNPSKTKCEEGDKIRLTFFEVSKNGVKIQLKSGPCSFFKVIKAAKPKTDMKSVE
# Protocol: (§3) The selectivity of compound 4 as an inhibitor of NLRP3 was then evaluated with respect to NLRC4 and absent in melanoma 2 (AIM2) inflammasomes. For activation of NLRC4 inflammasome, BMDM were treated with LPS (100 ng/ml) for 3 hours. Subsequently, the culture medium was removed and replaced with a serum-free medium containing compound 4 (1 μm for 30 minutes), finally the cells were transfected with flagellin (100 ng/ml) by S. typhimurium for 2 hours. The supernatant was tested by ELISA. […] The effect of the same compounds was examined on the non-NLR AIM2 inflammasome by transfecting BMDM with the dsDNS analogue Poly (dA:dT).
# [1] = tested on: B16-F10cytLUC melanoma cells; assay: Tumor growth of B16-F10cytLUC melanoma cells inoculated subcutaneously in C57BL/6 mice; assay type: in vivo; conditions: 25 mg/Kg intraperitoneal thrice weekly
# Protocol: A total of 1×10^6 B16-F10 melanoma cells transfected with cytluc (B16-F10cytLUC) were subcutaneously inoculated into females, 6- to 8-week-old C57BL/6 mice. Tumor growth was monitored daily, and tumor volumes were measured every other day with calipers using the following equation: Volume=π/6×(a×b2), where “a” is the major diameter and “b” is the minor diameter. As soon as the mass was palpable, mice were randomly divided (5 mice per group) into the treatment groups and the control group, with 5 mice per group. For NLRP3 inflammasome inhibition, mice were intraperitoneal injected with selected molecules thrice weekly at 25 mg/Kg; control mice received equal volumes of DMSO.
# Luciferase luminescence was followed by a total body luminometer (IVIS Lumina, Caliper-PerkinElmer).
# NLRC4 inflammasome = molecular target: T2, NLRC4 inflammasome (Mus musculus, UniProt Q3UP24); assay: NLRC4 inflammasome activation in LPS-primed BMDM transfected with flagellin of S. typhimurium (IL-1β ELISA); assay type: cell-based; conditions: LPS 100 ng/ml 3 hours, compound 1 μm 30 minutes, flagellin 100 ng/ml 2 hours
# T2 construct: endogenous in cells; host or cells: mouse BMDM, LPS-primed, transfected with S. typhimurium flagellin
# T2 sequence (Q3UP24 whole entry): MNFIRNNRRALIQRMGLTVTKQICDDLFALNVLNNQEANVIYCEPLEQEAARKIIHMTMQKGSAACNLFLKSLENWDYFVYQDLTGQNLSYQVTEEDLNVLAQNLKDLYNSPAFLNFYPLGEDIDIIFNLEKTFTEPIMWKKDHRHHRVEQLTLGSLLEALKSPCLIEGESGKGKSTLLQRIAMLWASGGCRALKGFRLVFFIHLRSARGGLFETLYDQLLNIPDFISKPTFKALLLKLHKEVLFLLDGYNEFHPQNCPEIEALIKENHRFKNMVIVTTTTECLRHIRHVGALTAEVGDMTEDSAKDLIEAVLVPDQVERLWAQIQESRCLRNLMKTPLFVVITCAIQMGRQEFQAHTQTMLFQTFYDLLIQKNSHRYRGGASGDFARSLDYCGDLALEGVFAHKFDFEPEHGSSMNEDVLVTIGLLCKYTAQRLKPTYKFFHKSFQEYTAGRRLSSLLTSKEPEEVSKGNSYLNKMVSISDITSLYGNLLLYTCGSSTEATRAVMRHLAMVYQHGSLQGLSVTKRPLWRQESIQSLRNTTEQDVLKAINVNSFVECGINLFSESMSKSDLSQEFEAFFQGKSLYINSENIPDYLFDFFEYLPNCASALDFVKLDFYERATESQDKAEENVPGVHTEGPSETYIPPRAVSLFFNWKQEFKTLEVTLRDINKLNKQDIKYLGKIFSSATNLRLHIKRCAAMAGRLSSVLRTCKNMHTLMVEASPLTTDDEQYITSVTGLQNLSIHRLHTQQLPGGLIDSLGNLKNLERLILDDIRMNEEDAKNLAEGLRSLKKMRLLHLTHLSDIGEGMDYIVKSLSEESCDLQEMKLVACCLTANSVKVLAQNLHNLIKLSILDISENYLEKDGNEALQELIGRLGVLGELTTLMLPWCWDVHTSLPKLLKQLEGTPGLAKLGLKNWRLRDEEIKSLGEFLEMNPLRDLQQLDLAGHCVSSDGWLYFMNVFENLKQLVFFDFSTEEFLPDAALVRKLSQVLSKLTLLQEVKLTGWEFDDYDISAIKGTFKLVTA
# Protocol: as §3
# The selectivity of compounds 6c and 10 of Formula (III) as inhibitors of NLRP3 was then evaluated with respect to NLRC4 inflammasome. For activation of NLRC4 inflammasome, BMDM were treated with LPS (100 ng/ml) for 3 hours. Subsequently the culture medium was removed and replaced with a serum-free medium containing […] (1 μm for 30 minutes), finally the cells were transfected with flagellin (100 ng/ml) by S. typhimurium for 2 hours. The supernatant was tested by ELISA.
# [2] = clinical development, phase II; cited from earlier work
# [3] = tested on: head and neck squamous cell carcinoma; conditions: head and neck squamous cell carcinoma mouse model; cited from earlier work
# [4] = tested on: pancreatic adenocarcinoma; conditions: cited from earlier work
# chronic myeloid leukemia = conditions: cited from earlier work
# [5] = preclinical studies; cited from earlier work
Effect on activation of NLRC4 inflammasome triggered by flagellin S. typhimurium (NLRC4 inflammasome),SMILES,Direct effect on cell proliferation of B16-F10 melanoma cells (B16-F10 melanoma cells),Growth of B16-F10 cells co-cultured with treated peritoneal macrophages (B16-F10 cells),Cytotoxicity / cell viability of THP-1 cells (THP-1 cells),IL-1β secretion on AIM2 inflammasome activation (AIM2 inflammasome),Reduction of tumor mass vs vehicle (DMSO) [1],Serum liver enzyme levels / hepatotoxicity [2],Tumor growth [3],Cell proliferation [4],Cell proliferation (chronic myeloid leukemia),Oral bioavailability [5]
no effect,"Nc1ccc(S(=O)(=O)N2Cc3ccccc3C[C@H]2C(=O)Nc2c3c(cc4c2CCC4)CCC3)cc1 [Compound 4 of Formula (II), (S)-2-((4-aminophenyl)sulfonyl)-N-(1,2,3,5,6,7-hexahydro-s-indacen-4-yl)-1,2,3,4-tetrahydroisoquinoline-3-carboxamide]",no direct effect,treated with the vehicle alone grew more than B16-F10 cells in contact with peritoneal macrophages treated with compound 4,no cytotoxicity,A reduction in the amount of IL-1β secretion was not observe,about 50%,–,–,–,–,–
–,"CC(C)(O)c1coc(S(=O)(=O)NC(=O)Nc2c3c(cc4c2CCC4)CCC3)c1 [MCC950, N-((1,2,3,5,6,7-hexahydro-s-indacen-4-yl)carbamoyl)-4-(2-hydroxypropan-2-yl)furan-2-sulfonamide]",–,–,–,–,–,hepatotoxicity problems; also recorded: elevation of serum liver enzyme levels,delay tumor growth,suppress cell proliferation,suppress cell proliferation,good oral bioavailability
